Results on 1 compound are retold here after patent publication US10724101B2, “Biomarker SCNN1B for gastric cancer” (The Chinese University of Hong Kong, priority 2016, dated 2020).

The experiment has as its system gastric cancer cell lines (AGS, KATOIII, MGC803, MKN28, MKN45 and SNU1) with silenced SCNN1B expression. In words: Demethylation treatment with 5-Aza; SCNN1B expression by semiquantitative RT-PCR. It is filed as cell-based, human. The following applies: 10 μM 5-Aza for 5 days; six cell lines with silenced SCNN1B; FIG. 4. Here is the method:
Semiquantitative RT-PCR was performed in a total volume of 25 μL reaction containing 1× Premix Ex Taq (Takara, Ohtsu, Japan) and 5-10 ng cDNA. The PCR program started with an initial denaturation at 95° C. for 10 min, followed by 27-35 cycles (95° C. for 30 sec, annealing temperature for 30 sec, and 72° C. for 30 sec) of amplification, with a final extension at 72° C. for 10 min. The PCR bands were visualized under ultraviolet light and photographed. The expression of the target gene was normalized by the expression of house-keeping gene β-actin, which served as an internal control.
Cells were seeded at a density of 1×10^5/100-mm dishes and grew for 24 hr. Cells were then treated with 10 μM 5-aza-2′-deoxycytidine (“5-Aza”) (Sigma-Aldrich) for 5 days. The 5-Aza was replenished every day. The gene expression of SCNN1B was evaluated using semiquantitative RT-PCR.

Each structure is given as a SMILES string.

`Nc1ncn([C@H]2C[C@H](O)[C@@H](CO)O2)c(=O)n1` [5-Aza, 5-aza-2′-deoxycytidine]: the “expression of SCNN1B after demethylation treatment” value is on record as “Restored expression of SCNN1B”.
